Test results published in PubChem BioAssay (NCI).
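Compound exposure: 48 hours, 5 concentrations, 96-well plates. TGI: concentration producing complete growth inhibition.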

Columns and labels:
Assay in all cases: NCI tumour cell line growth inhibition, 48 h
HT29 colon = system: HT29 colon
OVCAR-3 ovarian = system: OVCAR-3 ovarian
EKVX NSCLC = system: EKVX NSCLC
HOP-92 NSCLC = system: HOP-92 NSCLC
MALME-3M melanoma = system: MALME-3M melanoma
SF-295 CNS = system: SF-295 CNS
SW-620 colon = system: SW-620 colon
CCRF-CEM leukemia = system: CCRF-CEM leukemia
MDA-MB-435 = system: MDA-MB-435
HOP-62 NSCLC = system: HOP-62 NSCLC
RXF 393 renal = system: RXF 393 renal
HL-60(TB) leukemia = system: HL-60(TB) leukemia
MCF7 breast = system: MCF7 breast
SF-268 CNS = system: SF-268 CNS
RPMI-8226 leukemia = system: RPMI-8226 leukemia
TK-10 renal = system: TK-10 renal
HS 578T breast = system: HS 578T breast
SK-MEL-28 melanoma = system: SK-MEL-28 melanoma
U251 CNS = system: U251 CNS
ACHN renal = system: ACHN renal
OVCAR-5 ovarian = system: OVCAR-5 ovarian
MDA-N = system: MDA-N
NCI-H226 lung = system: NCI-H226 lung
OVCAR-8 ovarian = system: OVCAR-8 ovarian
SK-OV-3 ovarian = system: SK-OV-3 ovarian
HCT-15 colon = system: HCT-15 colon
SK-MEL-5 melanoma = system: SK-MEL-5 melanoma
UACC-62 melanoma = system: UACC-62 melanoma
SNB-19 CNS = system: SNB-19 CNS
A498 renal = system: A498 renal
NCI-H522 lung = system: NCI-H522 lung
SF-539 CNS = system: SF-539 CNS
OVCAR-4 ovarian = system: OVCAR-4 ovarian
HCT-116 colon = system: HCT-116 colon
NCI-H460 lung = system: NCI-H460 lung
DU-145 prostate = system: DU-145 prostate
K-562 leukemia = system: K-562 leukemia
PC-3 prostate = system: PC-3 prostate
A549 NSCLC = system: A549 NSCLC
MDA-MB-231 breast = system: MDA-MB-231 breast
LOX IMVI melanoma = system: LOX IMVI melanoma
786-0 renal = system: 786-0 renal
CAKI-1 renal = system: CAKI-1 renal
UO-31 renal = system: UO-31 renal
NCI/ADR-RES ovarian = system: NCI/ADR-RES ovarian
T-47D breast = system: T-47D breast
HCC-2998 colon = system: HCC-2998 colon
UACC-257 melanoma = system: UACC-257 melanoma
SK-MEL-2 melanoma = system: SK-MEL-2 melanoma
SN12C renal = system: SN12C renal
M14 melanoma = system: M14 melanoma
IGROV1 ovarian = system: IGROV1 ovarian
NCI-H23 lung = system: NCI-H23 lung
MOLT-4 leukemia = system: MOLT-4 leukemia
COLO 205 colon = system: COLO 205 colon
KM12 colon = system: KM12 colon

Measured: TGI

CN1N=C(c2ccncc2)OC1c1ccc(Cl)c(Cl)c1 (stereo unspecified)
> 100 µM: all assays above
